Literature values in PMC8364112 (Proceedings of the National Academy of Sciences of the …, 2021).

Tested on: PTH2R
Settings: for mode of action on PTH2R: potent / mild / weak, ref [4], [16]

PTH-related peptide [PTHrP]
mode of action on PTH2R [13]: weak | action on PTH2R (ref [3], [4], [13]): weak action on PTH2R

parathyroid hormone (SVSEIQLMHNLGKHLNSMERVEWLRKKLQDVHNF; Parathyroid hormone; UniProt P01270 32-65, looked up, fragment) [PTH]
mode of action on PTH2R [13]: mild

B1: substitution of Ile5^P of PTH with a histidine: PTH with Ile5 substituted with a histidine (peptide, UniProt P01270 32-115, looked up, variant I5H)
Parathyroid hormone: SVSEHQLMHNLGKHLNSMERVEWLRKKLQDVHNFVALGAPLAPRDAGSQRPRKKEDNVLVESHEKSLGEADKADVNVLTKAKSQ
modifications: Parathyroid hormone
effect of position 5 substitution on potency on PTH2R (ref [27]): decreases the peptide potency
